The values that follow are results of earlier work, collected in PMC7426938, “Induction of mitochondria-mediated apoptosis and suppression of tumor growth in zebrafish xenograft model by cyclic dipeptides identified from Exiguobacterium acetylicum” (Scientific Reports, 2020).

The subject of series [1] is HT-29 cells. Set-up: method as in PMID 15274345. Conditions: read-out: dose giving 50% growth inhibition; cited from earlier work.
In a further series the test system is HeLa cells. Set-up: method as in PMID 15274345. Conditions: read-out: dose giving 50% growth inhibition; cited from earlier work.
A further series has as its system MCF-7 cells. Set-up: method as in PMID 15274345. Conditions: read-out: dose giving 50% growth inhibition; cited from earlier work.
A further series deals with HL-60 cells. Set-up: method as in PMID 29211005, PMID 10052845. The note with it: cited from earlier work.
Series [2] has as its system HT-29 cells. Further details: method as in PMID 29211005, PMID 10052845. The note with it: cited from earlier work.

≈ marks a conversion by molar mass, not a printed value.

With `O=C1NC(Cc2ccccc2)C(=O)N2CCCC12` (centres unmarked) [cyclo (Phe-Pro)], the IC50 with HT-29 cells [1], in the series on HeLa cells and with MCF-7 cells was less than 7 mM throughout.
`O=C1NC(Cc2ccc(O)cc2)C(=O)N2CCCC12` (centres unmarked) [cyclo (Tyr-Pro)]: the IC50 in the series with HT-29 cells [1], with HeLa cells and in the series with MCF-7 cells was less than 7 mM each time.
Regarding `CC(C)C[C@@H]1NC(=O)[C@H](NC(=O)c2cccc(O)c2O)CCCNC1=O` [petrocidin-A], the “IC50, anti-proliferative effect” value with HL-60 cells was 3.9 µg/mL (≈ 10.7 µM); in the series on HT-29 cells [2] it was 5.3 µg/mL (≈ 14.6 µM).
